Assay results from patent EP2949653A1, “ISOXAZOLE DERIVATIVES AS LEUKOTRIENE BIOSYNTHESIS INHIBITORS” (Banoglu, Erden, priority 2014, dated 2015).

Experiments:
Format in all cases: cell-based
[1] = system: 5-LO mediated product formation; assay: 5-LO mediated product formation in intact monocytes stimulated with A23187; conditions: Homo sapiens, Monocyte; A23187 (2.5 µM), absence of exogenous AA (Figure 3)
Protocol: Cell based and cell-free assays carried out in biological studies, immunofluorescence microscopy analysis and zymosan-induced peritonitis in mice are performed as described hereinabove (Pegola, C. and et al., British J. Pharmacology, 2014, D01:10.1111/bph.12625). In the cell based assays (intact neutrophils or monocytes), 5-LO mediated product formation is started, after pre-incubation with test compounds (or control DMSO) for 15 min. at 37 °C, with addition of Ca-ionophore A23187 (2.5 µM) to the fresh 5 x 10^6 neutrophils or monocytes suspended in 1 ml of PGC buffer (phosphate buffered saline (PBS) solution containing 1 mg ml^-1 glucose and 1mM CaCl2, pH 7.4). After the incubation for 10 min. at 37 °C, the reaction is ended with addition of 1 ml of methanol, and 30 µL 1 N HCl, 200 ng prostaglandin B1 and 500 µL PBS are added to the mixture. […] Resulting 5-LO mediated products are extracted and analysed by the known method of high pressure liquid chromatography (HPLC) (Pergola, C. Proc Natl. Acad. Sci. U.S.A. 2008, 105, 19881). 5-LO mediated product formation (LTB4 and all trans isomers, and 5 (S)-hydro(pero)xy-6-trans-8, 11, 14-cis-eicosatetraenoic acid, 5-H(p)ETE) is expressed as ng per 10^6 cell. Cysteinyl-LTs have not been analyzed because that the amount of C4, D4 and E4 and LTB4 oxidation products are below the detection limit. […]

[2] = system: 5-LO mediated product synthesis; assay: 5-LO mediated product synthesis in monocytes stimulated with LPS plus fMLP; conditions: Homo sapiens, Monocyte
[3] = system: 5-LO mediated product synthesis; assay: 5-LO mediated product synthesis in neutrophils under cell-stress (NaCl or diamide); conditions: in the presence of cell-stress (0.3 M NaCl or 0.25 mM diamide), human neutrophils (Figure 4A-B)
Protocol: Inhibitory activity of compound 9hj on 5-LO mediated product synthesis in human neutrophils is shifted to the right by factor 10 in the presence of cell-stress (i.e., 0.3 M NaCl or 0.25 mM diamide), which is typical for non-redox type 5-LO inhibitors or FLAP inhibitors (Figure 4A-B). To intact neutrophils, 0.3 M sodium chloride (NaCl) or vehicle (DMSO) was added 3 min before addition of 9hj at 37°C. After addition of 9hj for another 10 min at 37°C, cells were stimulated with 20 µM AA for 10 min at 37°C. Data are expressed as percentage of vehicle control (0.1% DMSO). 100% controls correspond to 174.41 ng mL^-1 for 0.3 M NaCl and 50.73 ng mL^-1 for control (DMSO) (Figure 4A). To intact neutrophils, 0.25 mM diamide or vehicle (DMSO) was added 5 min before addition of 9hj at 37°C (Figure 4b). After addition of 9hj for another 15 min at 37°C, cells were stimulated with 2.5 µM A23187 plus 20 µM AA for 10 min at 37°C. Data are expressed as percentage of vehicle control (0.1% DMSO). 100% controls correspond to 1148.61 ng mL^-1 for 0.25 mM diamide and 802.06 ng mL^-1 for control (DMSO) (Figure 4B).

12-LO = biological target: T1, 12-LO (Homo sapiens, UniProt P18054); assay: 12-LO inhibition in A23187-stimulated neutrophils; conditions: up to 10 µM in A23187-stimulated neutrophils
T1 construct: 12-LO or 15-LO, up to 10 µM in A23187-stimulated neutrophils; endogenous in cells; host or cells: A23187-stimulated neutrophils
T1 sequence (P18054 1-663): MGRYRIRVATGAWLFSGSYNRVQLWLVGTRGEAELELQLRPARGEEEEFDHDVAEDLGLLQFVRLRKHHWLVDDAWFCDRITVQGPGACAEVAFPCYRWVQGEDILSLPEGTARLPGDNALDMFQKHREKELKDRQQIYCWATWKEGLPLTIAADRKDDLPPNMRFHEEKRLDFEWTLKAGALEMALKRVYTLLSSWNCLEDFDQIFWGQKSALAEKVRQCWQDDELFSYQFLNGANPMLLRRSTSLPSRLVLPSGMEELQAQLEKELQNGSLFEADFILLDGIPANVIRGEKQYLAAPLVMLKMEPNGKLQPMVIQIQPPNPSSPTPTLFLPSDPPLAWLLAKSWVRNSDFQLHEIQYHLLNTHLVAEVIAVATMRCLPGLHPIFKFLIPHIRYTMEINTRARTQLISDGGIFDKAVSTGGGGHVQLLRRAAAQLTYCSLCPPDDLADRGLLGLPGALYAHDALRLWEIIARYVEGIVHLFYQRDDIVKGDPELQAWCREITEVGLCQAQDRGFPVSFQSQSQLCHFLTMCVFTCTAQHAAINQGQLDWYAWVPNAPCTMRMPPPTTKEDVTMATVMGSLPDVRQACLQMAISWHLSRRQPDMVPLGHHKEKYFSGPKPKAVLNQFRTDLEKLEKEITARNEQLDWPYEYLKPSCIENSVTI

IC50 [1]: 5 nM
IC50 [2]: 8 nM
inhibition of 12-LO (12-LO): did not inhibit
Compound: O=C(O)c1noc(-c2ccc(OCc3ccc4ccccc4n3)cc2)c1-c1ccc(Cl)cc1 [Compound 9hj, 4-(4-Chlorophenyl)-5-(4-(quinolin-2-ylmethoxy)phenyl)isoxazole-3-carboxylic acid]
Inhibitory activity shifted to the right by factor [3]: 10
